Laboratory results as given in US20240132484A1, “BROAD SPECTRUM ANTIVIRAL COMPOUNDS TARGETING THE SKI COMPLEX” (priority 2020, published 2024).

Test system: Influenza virus
Assay: organism not typed
Format: cell-based, influenza A virus
Conditions: for Flu titer (pfu/ml): A549 cells; for Flu titer (pfu/ml) / Influenza virus titer, 10 μM / Influenza virus titer, 50 μM: plaque assay; for Avg: 1-24-20; for Avg PFU/ml: average of first and second experiment; for Influenza virus titer, 10 μM / Influenza virus titer, 50 μM: upper part of table (FIG. 5 data)

| Compound | Flu titer (pfu/ml) (1 μM compound) | Flu titer (pfu/ml) (10 μM compound) | Flu titer (pfu/ml) (50 μM compound) | first experiment (10 μM screen) [PFU/ml] | second experiment (10 μM screen) [PFU/ml] | Avg (10 μM screen) [PFU/ml] | Avg PFU/ml (10 μM screen) [PFU/ml] | first experiment PFU/ml (50 μM screen) [PFU/ml] | second experiment PFU/ml (50 μM screen) [PFU/ml] | Avg (50 μM screen) [PFU/ml] | Avg PFU/ml (50 μM screen) [PFU/ml] | Influenza virus titer, 10 μM [PFU/virus/ml] | Influenza virus titer, 50 μM [PFU/virus/ml] |
| --- | --- | --- | --- | --- | --- | --- | --- | --- | --- | --- | --- | --- | --- |
| COCCO[C@H]1[C@H](NC(=O)C(C)C)c2ccccc2C12CCN(C(=O)Cn1nc(C)cc1C)CC2 (relative stereo) [Compound 27046321, N-[(2R*,3R*)-1′-[(3,5-dimethyl-1H-pyrazol-1-yl)acetyl]-2-(2-methoxyethoxy)-2,3-dihydrospiro[indene-1,4′-piperidin]-3-yl]-2-methylpropanamide] | 110000 | 74000 | 87000 |  |  |  |  |  |  |  |  |  |  |
| COc1ccc(CNCCc2ccccc2F)c(OCC(O)CN2CCN(C)CC2)c1 (centres unmarked) [Compound 18, 1-[2-({[2-(2-fluorophenyl)ethyl]amino}methyl)-5-methoxyphenoxy]-3-(4-methyl-1-piperazinyl)-2-propanol] |  |  |  | 2000 | 1100 | 1150 | 1550 | 1400 | 300 | 400 | 850 |  |  |
| COc1ccc(CNC2CCCC2)c(OCC(O)CN2CCN(C)CC2)c1 (centres unmarked) [Compound 18-1] |  |  |  | 60000 | 19000 |  | 39500 | 2200 | 1400 |  | 1800 | 60000 | 2200 |
| COc1ccc(CNCCc2ccccc2C)c(OCC(O)CN2CCN(C)CC2)c1 (centres unmarked) [Compound 18-2] |  |  |  | 500 | 1900 |  | 1200 | 1700 | 100 |  | 900 | 500 | 1700 |
| COc1ccc(CNC2Cc3ccccc3C2)c(OCC(O)CN2CCN(C)CC2)c1 (centres unmarked) [Compound 18-3] |  |  |  | 12000 | 1000 |  | 6500 | 1100 | 1700 |  | 1400 | 12000 | 1100 |
| COc1ccc(CNCCc2ccccc2Cl)c(OCC(O)CN2CCN(C)CC2)c1 (centres unmarked) [Compound 18-4] |  |  |  | 7000 | 800 |  | 3900 | 1100 | 300 |  | 700 | 7000 | 1100 |
| COc1ccc(CNCC2CCCCC2)c(OCC(O)CN2CCN(C)CC2)c1 (centres unmarked) [Compound 18-5] |  |  |  | 60000 | 500 |  | 30250 | 2100 | 400 |  | 1250 | 60000 | 2100 |
| COc1ccc(CNCCc2ccccc2)c(OCC(O)CN2CCN(C)CC2)c1 (centres unmarked) [Compound 18-6] |  |  |  | 10000 | 500 |  | 5250 | 1300 | 300 |  | 800 | 10000 | 1300 |
| COc1ccc(CNCCCn2ccnc2C)c(OCC(O)CN2CCN(C)CC2)c1 (centres unmarked) [Compound 18-7] |  |  |  | 240000 | 44000 |  | 142000 | 110000 | 31000 |  | 70500 | 240000 | 110000 |
| COc1ccc(CNC2CCCCCCC2)c(OCC(O)CN2CCN(C)CC2)c1 (centres unmarked) [Compound 18-8] |  |  |  | 3000 | 700 |  | 1850 | 3800 | 200 |  | 2000 | 3000 | 38000 |
| COc1ccc(CNCCc2cccnc2)c(OCC(O)CN2CCCCCCC2)c1 (centres unmarked) [Compound 18-9] |  |  |  | 200000 | 9000 |  | 104500 | 20000 | 2600 |  | 11300 | 200000 | 20000 |
| COc1ccc(CNC2CCCCC2)c(OCC(O)CN2CCN(C)CC2)c1 (centres unmarked) [Compound 18-10] |  |  |  | 40000 | 2600 |  | 21300 | 16000 | 1900 |  | 8950 | 40000 | 16000 |
| COCCCNCc1ccc(OC)cc1OCC(O)CN1CCN(C)CC1 (centres unmarked) [Compound 18-11] |  |  |  | 100000 | 39000 |  | 69500 | 160000 | 31000 |  | 95500 | 100000 | 160000 |
| COc1ccc(CNCC(F)(F)F)c(OCC(O)CN2CCN(C)CC2)c1 (centres unmarked) [Compound 18-12] |  |  |  | 30000 | 28000 |  | 29000 | 90000 | 26000 |  | 58000 | 30000 | 90000 |
| COc1ccc(CNCCCn2cccn2)c(OCC(O)CN2CCN(C)CC2)c1 (centres unmarked) [Compound 18-13] |  |  |  | 40000 | 20000 |  | 30000 | 80000 | 110000 |  | 95000 | 40000 | 80000 |
| COc1ccc(CNCCCSC)c(OCC(O)CN2CCCCCCC2)c1 (centres unmarked) [Compound 18-14] |  |  |  | 44000 | 12000 |  | 28000 | 80000 | 1100 |  | 40550 | 4400 | 80000 |
| COc1ccc(CNCCCn2ccnc2)c(OCC(O)CN2CCN(C)CC2)c1 (centres unmarked) [Compound 18-15] |  |  |  | 16000 | 8000 |  | 12000 | 70000 | 1000 |  | 35500 | 36000 | 30000 |
